From patent US10752587B2, “Homobispiperidinyl derivatives as liver X receptor beta agonists, compositions and their use” (Merck Sharp & Dohme Corp., priority 2015, dated 2020)

Experiments:
[1] = molecular target: T1, glutathione-S-transferase (GST) tagged LXRbeta LBD (ligand binding domain) (Homo sapiens, UniProt P55055); test: LanthaScreen TR-FRET Liver X Receptor Coactivator Assay, co-activator recruitment to LXRbeta LBD; format: biochemical; conditions: for Emax: efficacy at max dose, in relation to reference dual agonist T0901317, read-out: LXR beta Activity @ max dose (%); for EC50: potency (Inflection Point, IP), co-activator recruitment to LXRbeta LBD, in relation to T0901317, read-out: LXR beta IP
T1 construct: purchased Invitrogen pv4658.pps
T1 sequence (P55055 222-460 limits assumed): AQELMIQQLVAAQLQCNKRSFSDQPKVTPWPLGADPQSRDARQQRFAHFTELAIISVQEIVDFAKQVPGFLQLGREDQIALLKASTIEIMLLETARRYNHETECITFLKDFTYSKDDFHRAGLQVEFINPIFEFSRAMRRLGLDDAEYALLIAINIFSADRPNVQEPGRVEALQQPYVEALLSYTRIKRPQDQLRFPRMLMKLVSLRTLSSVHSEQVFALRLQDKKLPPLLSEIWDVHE
Experimental: (§1) Potency (Inflection Point, IP) and efficacy (Emax) are evaluated via compound-induced co-activator recruitment to glutathione-S-transferase (GST) tagged LXRbeta and LXRalpha LBD (ligand binding domain) proteins in relation to reference dual agonist compound T0901317 (N-(2,2,2-Trifluoroethyl)-N-[4-[2,2,2-trifluoro-1-hydroxy-1-(trifluoromethyl)ethyl] phenyl] benzenesulfonamide) using the LanthaScreen™ TR-FRET Liver X Receptor Coactivator Assays according to manufacturer's instructions (Invitrogen catalog number pv4658.pps and pv4655). While running the LanthaScreen™ TR-FRET Liver X Receptor Coactivator Assay, LXR alpha-LBD or LXR beta-LBD was added to ligand test compounds followed by addition of a mixture of a fluorescein-labelled coactivator peptide and terbium-conjugated anti-GST antibody. After an incubation period at room temperature, TR-FRET (time-resolved fluorescence resonance energy transfer) was measured using a filter-based instrument capable of TR-FRET, e.g. PerkinElmer Envision.

[2] = molecular target: T2, glutathione-S-transferase (GST) tagged LXRalpha LBD (ligand binding domain) (Homo sapiens, UniProt Q13133); test: LanthaScreen TR-FRET Liver X Receptor Coactivator Assay, co-activator recruitment to LXRalpha LBD; format: biochemical; conditions: for Emax: efficacy at max dose, in relation to reference dual agonist T0901317, read-out: LXR alpha Activity @ max dose (%); for LXR alpha IP (nM) / EC50: potency (Inflection Point, IP), co-activator recruitment to LXRalpha LBD, in relation to T0901317; for EC50: read-out: LXR alpha IP
T2 construct: purchased Invitrogen pv4655
T2 sequence (Q13133 209-447 limits assumed): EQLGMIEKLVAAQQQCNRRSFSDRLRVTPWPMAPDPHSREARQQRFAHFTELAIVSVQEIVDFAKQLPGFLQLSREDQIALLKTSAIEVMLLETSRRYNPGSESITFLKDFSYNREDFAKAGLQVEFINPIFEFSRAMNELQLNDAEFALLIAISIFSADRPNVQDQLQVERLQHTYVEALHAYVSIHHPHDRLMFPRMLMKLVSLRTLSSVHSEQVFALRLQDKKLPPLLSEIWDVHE
Experimental: as §1

Row | Compound | Emax [1] [%] | EC50 [1] [nM] | Emax [2] [%] | LXR alpha IP (nM) [2] | EC50 [2] [nM]
1 | CCc1cccc([C@@](O)(C(=O)N2CCC(CC3CCN(c4ccc(C(=O)N(C)C)c(C)c4)CC3)CC2)C(F)(F)F)c1 [Example 2-156, 4-[4-({1-[(2R)-2-(3-ethyl-phenyl)-3,3,3-trifluoro-2-hydroxy-propanoyl]piperidin-4-yl}methyl)piperidin-1-yl]-N,N,2-trimethyl-benzamide] | 42 | 21 | 12 | NO IP | –
2 | CN(C)C(=O)c1ccc(N2CCC(OC3CCN(C(=O)C(O)(c4cccc(C(F)(F)F)c4)C(F)(F)F)CC3)CC2)cc1Cl (centres unmarked) [Example 2-25, 2-chloro-N,N-dimethyl-4-{4-[(1-{3,3,3-trifluoro-2-hydroxy-2-[3-(trifluoromethyl)phenyl]propanoyl}piperidin-4-yl)oxy]piperidin-1-yl}benzamide] | 89 | 28 | 26 | – | 695
3 | NC(=O)c1ccc(N2CCC(CC3CCN(C(=O)[C@](O)(c4cc(Cl)cc(Cl)c4)C(F)(F)F)CC3)CC2)cc1Cl [Example 12-1, 2-chloro-4-[4-({1-[(2R)-2-(3,5-dichlorophenyl)-3,3,3-trifluoro-2-hydroxypropanoyl]piperidin-4-yl}methyl)piperidin-1-yl]benzamide] | 37 | 3 | 9 | NO IP | –
4 | COc1cccc([C@@](O)(C(=O)N2CCC(CC3CCN(c4ccc(C(=O)N(C)C)c(C)c4)CC3)CC2)C(F)(F)F)c1 [Example 2-158, N,N,2-trimethyl-4-[4-({1-[(2R)-3,3,3-trifluoro-2-hydroxy-2-(3-methoxyphenyl)propanoyl]piperidin-4-yl}methyl)piperidin-1-yl]benzamide] | 44 | 20 | 6 | NO IP | –
5 | COc1cc(Cl)cc([C@@](O)(C(=O)N2CCC(CC3CCN(c4ccc(C(=O)N(C)C)c(Cl)c4)CC3)CC2)C(F)(F)F)c1 [Example 2-100, 2-chloro-4-[4-({1-[(2R)-2-(3-chloro-5-methoxy-phenyl)-3,3,3-trifluoro-2-hydroxy-propanoyl]piperidin-4-yl}methyl)piperidin-1-yl]-N,N-dimethyl-benzamide] | 24 | 6 | 0 | NO IP | –
6 | O=C(c1ccc(N2CCC(CC3CCN(C(=O)[C@](O)(c4ccccc4)C(F)(F)F)CC3)CC2)cc1Cl)N1CC(F)(F)C1 [Example 4-8, (2R)-3-{4-[(1-{3-chloro-4-[(3,3-difluoroazetidin-1-yl)carbonyl]phenyl}piperidin-4-yl)methyl]piperidin-1-yl}-1,1,1-trifluoro-3-oxo-2-phenylpropan-2-ol] | 93 | 172 | 37 | – | 984
7 | CN(C)C(=O)c1ccc(N2CCC(CC3CCN(C(=O)[C@](O)(c4cccc(OC(F)(F)F)c4)C(F)(F)F)CC3)CC2)cc1 [Example 2-144, N,N-dimethyl-4-{4-[(1-{(2R)-3,3,3-trifluoro-2-hydroxy-2-[3-(trifluoro-methoxy)phenyl]propanoyl}piperidin-4-yl)methyl]piperidin-1-yl}benzamide] | 55 | 78 | 14 | NO IP | –
8 | CNC(=O)c1ccc(N2CCC(CC3CCN(C(=O)[C@](O)(c4cccc(OC)c4)C(F)(F)C(F)(F)F)CC3)CC2)cc1Cl [Example 7-124, 2-chloro-N-methyl-4-[4-({1-[(2R)-3,3,4,4,4-pentafluoro-2-hydroxy-2-(3-methoxyphenyl)butanoyl]piperidin-4-yl}methyl)piperidin-1-yl]benzamide] | 96 | 28 | 36 | – | 482
